Assay results: patent publication US8088806B2 (Achillion Pharmaceuticals, Inc., priority 2005, dated 2012)
pEC50: −log10 of the molar value.

Test system: HCV replicon
Test: Replicon based assay of HCV replication inhibition (NPT ELISA)
Format: cell-based, Hepatitis C virus
Details: Hepatitis C virus, Huh-7, 72 h, Table I; Huh-7 HCV replicon-containing cells, three days; read-out: Activity
How it was run: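 Huh-7 cells carrying a bicistronic HCV replicon (neo, EMCV-IRES-driven NS3–NS5B) treated overnight after seeding with usually 6 concentrations, 10 to 0.03 micromolar, for three days at 37° C without G418. Replication read as NPT level by captured ELISA; matched-DMSO wells and interferon alpha as controls.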

SMILES	pEC50
COc1ccc(-c2csc(Nc3ccc4c(c3)OCO4)n2)cc1F [compound 169, N-(benzo[d][1,3]dioxol-5-yl)-4-(3-fluoro-4-methoxyphenyl)thiazol-2-amine]	< 5.00
Cc1ccnc(Nc2nc(-c3c(C)nc4sccn34)cs2)c1 [compound 170, 4-methyl-N-(4-(6-methylimidazo[2,1-b]thiazol-5-yl)thiazol-2-yl)pyridin-2-amine]	< 5.00
CCCCCOc1ccc(Nc2nc(CN3CCOCC3)cs2)cc1C(F)(F)F [compound 171, N-(3-(trifluoromethyl)-4-(pentyloxy)phenyl)-4-(morpholinomethyl)thiazol-2-amine]	> 6.00
CCCCCOc1ccc(Nc2nc(CN(C)C)cs2)cc1C(F)(F)F [compound 172, 4-((dimethylamino)methyl)-N-(3-(trifluoromethyl)-4-(pentyloxy)phenyl)thiazol-2-amine]	> 6.00
CCCCCOc1ccc(N(C(C)=O)c2nc(C(=O)Nc3cccnc3)cs2)cc1C(F)(F)F [compound 173, 2-(N-(3-(trifluoromethyl)-4-(pentyloxy)phenyl)acetamido)-N-(pyridin-3-yl)thiazole-4-carboxamide]	< 5.00
CCCCCOc1ccc(Nc2nc(-c3cccc(F)c3)cs2)cc1F [compound 174, N-(3-fluoro-4-(pentyloxy)phenyl)-4-(3-fluorophenyl)thiazol-2-amine]	> 6.00
CCCCCOc1ccc(Nc2nc(-c3cc(-c4ccc(Cl)c(Cl)c4)no3)cs2)cc1F [compound 175, 4-(3-(3,4-dichlorophenyl)isoxazol-5-yl)-N-(3-fluoro-4-(pentyloxy)phenyl)thiazol-2-amine]	< 5.00
CCCCCOc1ccc(Nc2nc(-c3cc(C(=O)OCC)no3)cs2)cc1F [compound 176, ethyl 5-(2-(3-fluoro-4-(pentyloxy)phenylamino)thiazol-4-yl)isoxazole-3-carboxylate]	< 5.00
CCCCCOc1ccc(Nc2nc(-c3ccccc3Cl)cs2)cc1F [compound 177, 4-(2-chlorophenyl)-N-(3-fluoro-4-(pentyloxy)phenyl)thiazol-2-amine]	> 6.00
CCCCCOc1ccc(Nc2nc(-c3cccc(F)c3)cs2)cn1 [compound 178, N-(4-(3-fluorophenyl)thiazol-2-yl)-6-(pentyloxy)pyridin-3-amine]	> 6.00
CCCCCOc1ccc(Nc2nc(-c3cc(-c4ccc(Cl)c(Cl)c4)no3)cs2)cn1 [compound 179, N-(4-(3-(3,4-dichlorophenyi)isoxazol-5-yl)thiazol-2-yl)-6-(pentyloxy)pyridin-3-amine]	< 5.00
CCCCCOc1ccc(Nc2nc(-c3cc(C(=O)OCC)no3)cs2)cn1 [compound 180, ethyl 5-(2-(6-(pentyloxy)pyridin-3-ylamino)thiazol-4-yl)isoxazole-3-carboxylate]	< 5.00
CCCCCOc1ccc(Nc2nc(-c3ccccc3Cl)cs2)cn1 [compound 181, N-(4-(2-chlorophenyl)thiazol-2-yl)-6-(pentyloxy)pyridin-3-amine]	> 6.00
CCCCCc1ccc(Nc2nc(-c3ccc(CC(=O)O)cc3)c(C)s2)cc1 [compound 182, 2-(4-(2-(4-pentylphenylamino)-5-methylthiazol-4-yl)phenyl)acetic acid]	> 6.00
CCCCCc1ccc(Nc2nc(-c3cccc(F)c3)cs2)cc1 [compound 183, 4-(3-fluorophenyl)-N-(4-pentylphenyl)thiazol-2-amine]	> 6.00
CCCCCc1ccc(Nc2nc(-c3cc(-c4ccc(Cl)c(Cl)c4)no3)cs2)cc1 [compound 184, 4-(3-(3,4-dichlorophenyl)isoxazol-5-yl)-N-(4-pentylphenyl)thiazol-2-amine]	< 5.00
CCCCCc1ccc(Nc2nc(-c3cc(C(=O)OCC)no3)cs2)cc1 [compound 185, ethyl 5-(2-(4-pentylphenylamino)thiazol-4-yl)isoxazole-3-carboxylate]	< 5.00
CCCCCc1ccc(Nc2nc(-c3ccccc3Cl)cs2)cc1 [compound 186, 4-(2-chlorophenyl)-N-(4-pentylphenyl)thiazol-2-amine]	< 5.00
